Results: PubChem BioAssay (NCI)
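Cultured in 96-well plates, cells were exposed to test compound for 48 hours across five concentrations. Abbreviation: GI50, concentration required for 50% inhibition of growth. At the TGI there is no net growth.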

Key:
Assay in all cases: DTP human tumour cell line panel, 48 h
[1] = test system: MDA-MB-435
[2] = test system: OVCAR-5 ovarian
[3] = test system: TK-10 renal
[4] = test system: KM12 colon
[5] = test system: NCI-H522 lung
[6] = test system: NCI/ADR-RES ovarian
[7] = test system: K-562 leukemia
[8] = test system: DU-145 prostate
[9] = test system: OVCAR-4 ovarian
[10] = test system: A498 renal
[11] = test system: A549 NSCLC
[12] = test system: OVCAR-8 ovarian
[13] = test system: LOX IMVI melanoma
[14] = test system: MOLT-4 leukemia
[15] = test system: NCI-H226 lung
[16] = test system: U251 CNS
[17] = test system: SK-OV-3 ovarian
[18] = test system: HT29 colon
[19] = test system: M14 melanoma
[20] = test system: HOP-62 NSCLC
[21] = test system: PC-3 prostate
[22] = test system: EKVX NSCLC
[23] = test system: IGROV1 ovarian
[24] = test system: 786-0 renal
[25] = test system: HL-60(TB) leukemia
[26] = test system: MDA-MB-231 breast
[27] = test system: COLO 205 colon
[28] = test system: SNB-19 CNS
[29] = test system: SN12C renal
[30] = test system: CCRF-CEM leukemia
[31] = test system: T-47D breast
[32] = test system: MCF7 breast
[33] = test system: HCC-2998 colon
[34] = test system: SF-539 CNS
[35] = test system: NCI-H23 lung
[36] = test system: ACHN renal
[37] = test system: SK-MEL-2 melanoma
[38] = test system: SK-MEL-5 melanoma
[39] = test system: UACC-257 melanoma
[40] = test system: UO-31 renal
[41] = test system: HOP-92 NSCLC
[42] = test system: OVCAR-3 ovarian
[43] = test system: SF-268 CNS
[44] = test system: SW-620 colon
[45] = test system: SK-MEL-28 melanoma
[46] = test system: BT-549 breast
[47] = test system: SF-295 CNS
[48] = test system: SR leukemia
[49] = test system: RPMI-8226 leukemia
[50] = test system: CAKI-1 renal
[51] = test system: NCI-H460 lung
[52] = test system: SNB-75 CNS
[53] = test system: RXF 393 renal
[54] = test system: HS 578T breast
[55] = test system: HCT-15 colon
[56] = test system: UACC-62 melanoma
[57] = test system: HCT-116 colon
[58] = test system: MALME-3M melanoma

SMILES: CCN(CC)c1ccc(C2=NN(C(C)=O)C(c3cc(OC)c(OC)c(OC)c3)C2)cc1 (stereo not drawn)
- GI50 [1]: 0.166 µM
- TGI [1]: 0.363 µM
- GI50 [2]: 1.45 µM
- TGI [2]: 15.3 µM
- GI50 [3]: 0.549 µM
- TGI [3]: 17 µM
- GI50 [4]: 0.349 µM
- TGI [4]: 12.1 µM
- GI50 [5]: 0.307 µM
- TGI [5]: 2.84 µM
- GI50 [6]: 0.247 µM
- TGI [6]: 0.81 µM
- GI50 [7]: 0.689 µM
- TGI [7]: > 100 µM
- GI50 [8]: 0.399 µM
- TGI [8]: 2.28 µM
- GI50 [9]: 0.583 µM
- TGI [9]: 29.2 µM
- GI50 [10]: 0.344 µM
- TGI [10]: 4.13 µM
- GI50 [11]: 0.89 µM
- TGI [11]: 22.5 µM
- GI50 [12]: 0.795 µM
- TGI [12]: 11.9 µM
- GI50 [13]: 0.568 µM
- TGI [13]: 16 µM
- GI50 [14]: 0.341 µM
- TGI [14]: 3.57 µM
- GI50 [15]: 1.74 µM
- TGI [15]: 11.8 µM
- GI50 [16]: 0.406 µM
- TGI [16]: 11.5 µM
- GI50 [17]: 0.41 µM
- TGI [17]: 10.6 µM
- GI50 [18]: 0.354 µM
- TGI [18]: 1.68 µM
- GI50 [19]: 0.418 µM
- TGI [19]: 6.07 µM
- GI50 [20]: 3.96 µM
- TGI [20]: 24.2 µM
- GI50 [21]: 0.339 µM
- TGI [21]: 12.2 µM
- GI50 [22]: 0.6 µM
- TGI [22]: 11 µM
- GI50 [23]: 0.769 µM
- TGI [23]: 33.6 µM
- GI50 [24]: 0.491 µM
- TGI [24]: 13.3 µM
- GI50 [25]: 0.209 µM
- TGI [25]: 0.541 µM
- GI50 [26]: 1.24 µM
- TGI [26]: 6.9 µM
- GI50 [27]: 0.307 µM
- TGI [27]: 1.16 µM
- GI50 [28]: 0.476 µM
- TGI [28]: 13.3 µM
- GI50 [29]: 1.15 µM
- TGI [29]: 16.2 µM
- GI50 [30]: 0.304 µM
- TGI [30]: 1.42 µM
- GI50 [31]: 0.511 µM
- TGI [31]: 22.6 µM
- GI50 [32]: 0.317 µM
- TGI [32]: 11.4 µM
- GI50 [33]: 1.05 µM
- TGI [33]: 8.04 µM
- GI50 [34]: 0.283 µM
- TGI [34]: 1.16 µM
- GI50 [35]: 0.87 µM
- TGI [35]: 17.4 µM
- GI50 [36]: 0.563 µM
- TGI [36]: 23 µM
- GI50 [37]: 2.37 µM
- TGI [37]: 26.1 µM
- GI50 [38]: 0.378 µM
- TGI [38]: 5.05 µM
- GI50 [39]: 16 µM
- TGI [39]: 39.8 µM
- GI50 [40]: 1.13 µM
- TGI [40]: 21 µM
- GI50 [41]: 1.82 µM
- TGI [41]: 20.3 µM
- GI50 [42]: 0.36 µM
- TGI [42]: 11 µM
- GI50 [43]: 0.867 µM
- TGI [43]: 20.9 µM
- GI50 [44]: 0.368 µM
- TGI [44]: 14.4 µM
- GI50 [45]: 0.819 µM
- TGI [45]: 19.1 µM
- GI50 [46]: 0.667 µM
- TGI [46]: 7.9 µM
- GI50 [47]: 0.258 µM
- TGI [47]: 1.46 µM
- GI50 [48]: 0.0708 µM
- TGI [48]: 0.685 µM
- GI50 [49]: 0.18 µM
- TGI [49]: 0.579 µM
- GI50 [50]: 0.134 µM
- TGI [50]: 21 µM
- GI50 [51]: 0.371 µM
- TGI [51]: 4.71 µM
- GI50 [52]: 0.233 µM
- TGI [52]: 3.59 µM
- GI50 [53]: 0.38 µM
- TGI [53]: 2.43 µM
- GI50 [54]: 0.348 µM
- TGI [54]: 26.6 µM
- GI50 [55]: 0.441 µM
- TGI [55]: 12.1 µM
- GI50 [56]: 0.308 µM
- TGI [56]: 13.6 µM
- GI50 [57]: 0.349 µM
- TGI [57]: 13 µM

SMILES: O=C1c2ccccc2C(=O)c2c(Nc3ccc(CCO)cc3)ccc(O)c21
- GI50 [1]: 22.6 µM
- TGI [1]: > 100 µM
- GI50 [2]: 21.1 µM
- TGI [2]: 62.6 µM
- GI50 [3]: 21.8 µM
- TGI [3]: > 100 µM
- GI50 [4]: 4.74 µM
- TGI [4]: 36.3 µM
- GI50 [5]: 3.56 µM
- TGI [5]: 16.7 µM
- GI50 [6]: 17.6 µM
- TGI [6]: 94.4 µM
- GI50 [58]: 12.8 µM
- TGI [58]: 58 µM
- GI50 [7]: 18.4 µM
- TGI [7]: > 100 µM
- GI50 [8]: 7.67 µM
- TGI [8]: 42.7 µM
- GI50 [9]: 9.13 µM
- TGI [9]: > 100 µM
- GI50 [10]: 16.4 µM
- TGI [10]: 40.2 µM
- GI50 [11]: 6.43 µM
- TGI [11]: > 100 µM
- GI50 [12]: 17.4 µM
- TGI [12]: > 100 µM
- GI50 [13]: 3.15 µM
- TGI [13]: 14.5 µM
- GI50 [14]: 10.7 µM
- TGI [14]: > 100 µM
- GI50 [15]: 14.8 µM
- TGI [15]: 48.9 µM
- GI50 [16]: 8.33 µM
- TGI [16]: 85.8 µM
- GI50 [17]: 11 µM
- TGI [17]: 64.8 µM
- GI50 [18]: 4.09 µM
- TGI [18]: 14.9 µM
- GI50 [19]: 12.9 µM
- TGI [19]: 61.4 µM
- GI50 [20]: 21.4 µM
- TGI [20]: 45.9 µM
- GI50 [21]: 6.34 µM
- TGI [21]: 25.5 µM
- GI50 [22]: 4.69 µM
- TGI [22]: > 100 µM
- GI50 [23]: 1.41 µM
- TGI [23]: 32.6 µM
- GI50 [24]: 17.2 µM
- TGI [24]: 60.1 µM
- GI50 [25]: 25.6 µM
- TGI [25]: > 100 µM
- GI50 [26]: 3.3 µM
- TGI [26]: 24.9 µM
- GI50 [27]: 4.86 µM
- TGI [27]: 21.7 µM
- GI50 [28]: 23 µM
- TGI [28]: 72.2 µM
- GI50 [29]: 16.9 µM
- TGI [29]: > 100 µM
- GI50 [30]: 3.61 µM
- TGI [30]: 30.7 µM
- GI50 [31]: 0.987 µM
- TGI [31]: 26.1 µM
- GI50 [32]: 0.504 µM
- TGI [32]: 36.4 µM
- GI50 [33]: 9.42 µM
- TGI [33]: 28.3 µM
- GI50 [34]: 10.2 µM
- TGI [34]: 27.3 µM
- GI50 [35]: 17.3 µM
- TGI [35]: 88.7 µM
- GI50 [36]: 4.3 µM
- TGI [36]: 45.2 µM
- GI50 [38]: 11.7 µM
- TGI [38]: 33.5 µM
- GI50 [39]: 20.3 µM
- TGI [39]: 70.7 µM
- GI50 [40]: 2.2 µM
- TGI [40]: 26.9 µM
- GI50 [41]: 4.52 µM
- TGI [41]: 26.3 µM
- GI50 [42]: 13.2 µM
- TGI [42]: > 100 µM
- GI50 [43]: 11 µM
- TGI [43]: > 100 µM
- GI50 [44]: 6.69 µM
- TGI [44]: 67.5 µM
- GI50 [45]: 12.3 µM
- TGI [45]: 55.2 µM
- GI50 [46]: 9.82 µM
- TGI [46]: 68.5 µM
- GI50 [47]: 11.8 µM
- TGI [47]: 47.4 µM
- GI50 [48]: 7.71 µM
- TGI [48]: > 100 µM
- GI50 [49]: 5.49 µM
- TGI [49]: 36.5 µM
- GI50 [50]: 6.81 µM
- TGI [50]: > 100 µM
- GI50 [51]: 3.57 µM
- TGI [51]: 15.1 µM
- GI50 [52]: 5.09 µM
- TGI [52]: 29 µM
- GI50 [53]: 6.54 µM
- TGI [53]: 23.7 µM
- GI50 [54]: 3.52 µM
- TGI [54]: 48 µM
- GI50 [55]: 4.28 µM
- TGI [55]: 38.7 µM
- GI50 [56]: 10.2 µM
- TGI [56]: 32.3 µM
- GI50 [57]: 8.71 µM
- TGI [57]: > 100 µM
